Two compounds from patent US20220249525A1, “Fatty Acid Compounds for Prevention and Treatment of Neurodegenerative Disorders” (T OMEGA AS, priority 2019, published 2022) can be followed below.

In assay [1] the test system is HuH-7 cells. As to the kind of experiment: WST-1 cell viability assay in HuH-7 cells. It is filed as cell-based. The settings on record: 2 days. The protocol: (§1) The fatty acids (FAs) TTA, tr-TTA, N-TTA, tr-N-TTA and (PA) were complexed with FBS following the same procedure, differing only in final stock concentration, due to variation in solubility. Approximately 0.07 g of FA was weighed in a 10 ml sterile serum tube (BD Vacutainer®, catalog no. 368430) and dissolved in sterile filtrated 0.1 M sodium hydroxide (NaOH) of a volume giving 25 mM FA, controls without FA were made, containing only NaOH and FBS. A syringe (Sterican®, catalog no. 4657577) was pierced through the rubber cap of the serum tube, and the tube was placed in an 80° C. water bath until the FAs were dissolved. Each FA-solution was then diluted in inactivated FBS to stock concentration 1 mM (N-TTA, tr-N-TTA), and 2 mM by adding the FA to a volume of 100% FBS after heating the FBS to 45° C. in a water bath. The transfer of FA to FBS had to be executed controlled and swiftly to avoid the formation of precipitates. If any precipitates in the solution were visible, the FA and a new volume of FBS were reheated, and the procedure performed again. Following successful complexation, the stock solutions were stored at −20° C. in 1 ml aliquots (CryoPure tube, Sarstedt AG & Co, Nümbrecht, Germany).
(§2) The WST-1 cell proliferation assay was performed using the kit from Roche (table 4.2.) and its accompanying procedure (version 16, February 2011) (134). The number of cells seeded to each well in the 96-well plates (Corning Inc., catalog no. 353072) varied depending on the treatment time and cell type (table 3.).
(§3) Cell suspension and medium were then transferred to each well in a volume of 100 μl in total. Subsequently, the plates were incubated for 24 hours to make the cells settle. The next day, 100 μl with FA complexed with FBS or diluted in DMSO was added to row A or B in the 96-well plate to give a defined concentration. The solution was then mixed with a pipette, and 100 μl of the medium with FA was transferred to the next well in the same column, mixed by pipetting up and down at least five times before 100 μl was transferred again to the next well in the column. This procedure was repeated until the second last, or last well in each column was reached, making a series of two-fold dilution of the FAs in the cell medium. Two parallels were performed for every treatment per run. After the addition of FAs, the plates were incubated for 24-96 hours depending on the length of the treatment.
(§4) Following the FA-treatment, the cells were studied under a microscope to ensure that visual observations matched the measured absorbance and cell activity in the assay. Subsequently, 10 μl WST-1 reagent was added to each well, and the plates were incubated for 3 hours. Due to high activity in the HuH-7 cell line, the WST-1 reagent was diluted 1:1 with PBS. Before the measurement of absorbance, the plates were placed on a shaker for 1 minute ensuring thoroughly mixing of the wells. The plates were then put straight into the spectrophotometer (SpectraMax Plus 384 Microplate Reader, Molecular Devices Corporation, San Jose, Calif., USA) to perform the measurements. The accompanying software was used (SoftMax Pro, Molecular Devices Corporation, San Jose, Calif., USA) to obtain the results. The absorbance of the samples was measured at 450 nm, and the reference wavelength was set to 650 nm. For each well, the measured absorption at 650 nm was subtracted from the absorption at 450 nm. The measured absorbance for the treated cells was then compared to the controls (blank) containing only cells and growth medium.
A general note: Tetrazolium assays rely on reduction of a dye to a coloured formazan, in cell work by metabolically active cells.

The subject of assay [2] is SH-SY5Y cells. As to the kind of experiment: WST-1 cell viability assay in SH-SY5Y cells. The settings on record: 4 days. Format: cell-based. The protocol: as §1, §2, §3
as §4, with “The accompanying software was used (SoftMax Pro, Molecular Devices Corporation, San Jose, Calif., USA) to obtain the results.” left out

The subject of assay [3] is SH-SY5Y cells. As to the kind of experiment: Gene expression (qPCR) in SH-SY5Y cells treated with fatty acids. Format: cell-based. As for the experimental part: (§5) Cells from both cell lines were obtained and counted as previously mentioned. After cell counting, the cells were seeded to 6-well plates (Corning Inc., catalog no. 353046) with a density dependent on total treatment time and cell line. The cells were seeded in 3-4 ml medium and placed in the incubator for approximately 24 hours for the cells to settle. Following the 24 hours, the FAs were thawed in room temperature, the cell medium was aspirated off, and a new, exact volume was added to each well, depending on the final concentration of FA or control. Before the addition of FAs, the FA-solutions were mixed by pipetting up and down several times. The FAs were then added with an exact volume to the wells giving a total volume of 3 ml or 4 ml depending on treatment time, yielding the target concentration of FA in well. After the addition of FA to one well, the solution was mixed by carefully rotating the 6-well plate. The same procedure was followed for all the wells, differing only in FA or control added, and the ratio of medium and FA depending on treatment dose. During cell treatment, the plates were incubated under the same conditions as previously mentioned. PBS was placed between the wells to reduce liquid-loss due to evaporation. After treatment and incubation for 24-96 hours, the procedure of RNA purification was followed.
(§6) Purification of total RNA from treated HuH-7- and SH-SY5Y cells was done following the protocol “Purification of Total RNA from Animal Cells using Spin Technology” described in the RNeasy Mini Handbook (fourth edition, June 2012) with some modifications. The RNeasy Mini Kit was used.
(§7) Frozen RNA samples were thawed on ice or used directly after the RNA purification protocols. All samples from the cell lines were diluted with nuclease-free water to 50 ng/μl, and all samples from brain tissue were diluted to 200 ng/μl prior to cDNA synthesis. UHRR and UMRR were initially at 50 ng/μ1 (table 4.3.). The reactants (table 4.6.) used in the RT-mix were thawed on ice and mixed following the protocol “High Capacity cDNA Reverse Transcription Kits” (Applied Biosystems, June 2010) (153). From the master mix containing the total volume of the mixed reactants, 10 μl was added to each sample tube placed on ice already containing 10 μl of the diluted RNA. The samples with a total volume of 20 μl were mixed by pipetting up and down several times. In addition, samples without reverse transcriptase (−RT) were made, using nuclease-free water to replace the RT volume. The tubes were placed on ice until they were loaded to the GeneAmp* PCR system 2700 (Applied Biosystems, Foster City, Calif., USA) and the program described in table 4.7. was used. After the procedure, all samples were diluted to 10 ng/μl by the addition of nuclease-free water and placed for storage at 4° C. until further use.
The mix for the samples (and standard curves) was made using TaqMan Gene Expression Master Mix (table 4.8.), probes specific for the genes in question, and nuclease-free water. −RT and NTC samples were always used in the experiments. […] The prepared samples were placed in the PCR cycler (ABI PRISM 7900HT Sequence Detection System, Applied Biosystems) for quantification, using the 9600 Emulation Thermal Cycler Protocol (table 4.9.) in the software SDS 2.3 (Applied Biosystems, Foster City, Calif., USA).
(§8) When performing the qPCR reactions, all samples were analyzed in triplicates, and the mean value was used in further analysis. […]
For orientation: In qPCR the cycle at which signal appears reflects the starting amount.

The test system of assay [4] is HuH-7 cells. Nature of the assay: Gene expression (qPCR) in HuH-7 cells treated with fatty acids. Format: cell-based. As for the experimental part: as §5, §6, §7
The mix for the samples (and standard curves) was made using TaqMan Gene Expression Master Mix (table 4.8.), probes specific for the genes in question, and nuclease-free water. −RT and NTC samples were always used in the experiments. The master mix for each gene was made according to table 4.8. and added to tubes together with the cDNA. The tubes were vortexed and centrifuged briefly before the samples were added to a 384-well plate (Sarstedt AG & CO, catalog no. 72.1984.202) with the use of a pipette. For every sample, three parallels of 9 μl were used. After the addition of all the samples to the plate, a plastic cover (Sarsted AG & CO, catalog no. 95.1994) was used to seal the plate before centrifuging it for 2 minutes at 700 g. The prepared samples were placed in the PCR cycler (ABI PRISM 7900HT Sequence Detection System, Applied Biosystems) for quantification, using the 9600 Emulation Thermal Cycler Protocol (table 4.9.) in the software SDS 2.3 (Applied Biosystems, Foster City, Calif., USA).
as §8

Assay [5] has as its system MOLM-13 human acute leukemia cells. Nature of the assay: WST-1 viability of MOLM-13 cells. Format: cell-based. The settings on record: for Abs450 nm (WST-1 viability): complexed to BSA. The protocol:
MOLM-13 suspension cells were diluted and added to 96-well plates (15.000 cells/well).
The modified fatty acids TTA, tr-TTA, TDG (TGH) and tr-TDG (tr-TGH) were complexed to bovine serum albumin (BSA), and 10-fold dilutions of the fatty acids or BSA control were added to the wells in duplicate. Two plates were run in parallel, and WST-1 was added to the cells after 48 (plate 1) and 72 hours (plate 2). Absorbance at 450 nm measured to assess viability of the cells.

Assay [6] in a line: 4 week high-fat diet study, body weight, adipose tissue, plasma glucose and cholesterol. The following applies: mice, N-TTA 750 mg/kg or triple-N-TTA 350 mg/kg body weight, 4 weeks. Format: in vivo, C57BL/6 mice. As for the experimental part:
This animal study was conducted according to the Guidelines for the Care and Use of Experimental Animals, and the protocol was approved by the Norwegian Food Authorities. 7 to 8-weeks old male C57BL/6 mice, were obtained from Janvier Labs. After one week of acclimatization, they were divided into 3 groups of 7 animals. One group was fed a control high-fat (25 w/v) diet while the two remaining groups were fed a high-fat diet supplemented with either N-TTA (750 mg/kg body weight) or triple-N-TTA (350 mg/kg body weight). After 4 weeks of feeding, the mice were anaesthetized with Isofluorane (Forane, Abbot Laboratories Ltd, Illinois, USA) inhalation under fasting conditions, and blood and liver samples were collected. […]
Glucose and lipids in plasma was measured on the Hitachi 917 system (Roche Diagnostics, GmbH, Mannheim, Germany) using kits from Roche Diagnostics or DiaSys.

[7] abbreviates: 125 μM complexed with FBS, 24 hours.
The mark [8] stands for this setting: 25 μM dissolved in DMSO, 4 days.

Each structure is given as a SMILES string. Where a name gives a salt, the structure may show the parent alone.

Regarding `CCCCCCCCCCCCCCCC(=O)O` [PA], the “WST-1 activity compared to untreated cells” value in the assay on HuH-7 cells [1] (62.5 μM, complexed with FBS) is reported as around 150%. In addition, in the assay with SH-SY5Y cells [2] (500 μM), the WST-1 activity entry was “the same as the control”. In addition, the WST-1 activity result with SH-SY5Y cells [2] (concentrations up to 250 μM) is listed as “stimulated activity”. Besides, in the assay on SH-SY5Y cells [3] (setting [7]), the “relative gene expression of CPT-2 vs control” value is on record as “No change”, the “relative gene expression of CYCS vs control” value is on record as “No change”, the “relative gene expression of TFAM vs control” value is listed as “No change” and the “relative gene expression of UCP3 vs control” value is “No change”. In the assay on SH-SY5Y cells [3] (additional treatments, 4 days, reference 18 S), the “CYCS gene expression vs FBS-control” value is recorded as “small decrease”. Besides, in the assay with HuH-7 cells [4] (setting [8]), the “relative expression of CPT-2 compared to control” value is 0.65 and the “relative expression of UCP3 compared to untreated cells” value is “approximately 0.5”. The “increase in CPT-2 expression relative to control” value in the assay with HuH-7 cells [4] (125 μM complexed with FBS, 1 day) is on record as 1.5 fold. In addition, in the assay with HuH-7 cells [4] (125 μM complexed with FBS, 2 days), the “increase in CPT-2 expression relative to control” value is given as “did not result in increased expression”. For the same compound, in the assay on HuH-7 cells [4] (125 μM complexed with FBS, 4 days), the “increase in CPT-2 expression relative to control” value is “did not result in increased expression”. Besides, the “increase in relative expression of UCP3” value in the assay with HuH-7 cells [4] (125 μM complexed with FBS, all treatment periods (1, 2, 4 days)) was “did not induce any changes”.
Take `CC#CCCCCCCCCCCCNCC(=O)O` [tr-N-TTA, Tetradec-12-yn-1-ylglycine hydrochloride]: the “Abs450 nm (WST-1 viability)” value in assay [5] (48 hours, 0.0625 mM) came to 0.4964; in assay [5] (48 hours, 0.125 mM) it was 0.1452; in assay [5] (48 hours, 0.25 mM) it was 0.1679; in assay [5] (48 hours, 0.5 mM) it was 0.2177; in assay [5] (48 hours, 1 mM), 0.2833; in assay [5] (48 hours, 2 mM), 0.5009. Also, the “Abs450 nm (WST-1 viability)” value came to 0.3769 in assay [5] (72 hours, 0.03125 mM); 0.4452 in assay [5] (72 hours, 0.0625 mM); 0.13 in assay [5] (72 hours, 0.125 mM); 0.1384 in assay [5] (72 hours, 0.25 mM); 0.1964 in assay [5] (72 hours, 0.5 mM); 0.366 in assay [5] (72 hours, 1 mM). The “Abs450 nm (WST-1 viability)” value in assay [5] (72 hours, 2 mM) was determined as 0.426. In addition, the “toxicity to leukemic cells” value in assay [5] (MOLM-13, compared with TTA and tr-TTA) was “toxic to leukemic cells at a lower concentration than TTA and tr-TTA”. Besides, the “WST-1 activity compared to untreated cells” value in the assay with HuH-7 cells [1] (16 μM, complexed with FBS) was 109%; in the assay on HuH-7 cells [1] (all concentrations), “around 100%”; in the assay on SH-SY5Y cells [2] (500 μM), 84%; in the assay with SH-SY5Y cells [2] (all concentrations except 500 μM) it was around 100%. Also, in the assay with HuH-7 cells [1] (500 μM), the “WST-1 activity compared to no treatment” value is listed as around 90%. Moreover, the “LDL cholesterol (plasma)” value in assay [6] is given as “reduced”. Also, the “body weight gain vs high-fat control diet” value in assay [6] was “significantly lower”. Moreover, the “cholesterol esters (plasma)” value in assay [6] is on record as “reduced”. The “epididymal white adipose tissue depot” value in assay [6] is on record as “reduced in size”. Moreover, in assay [6], the “free cholesterol (plasma)” value is “reduced”. Besides, the “perirenal white adipose tissue depot” value in assay [6] was “reduced in size”. Further, the “total cholesterol (plasma)” value in assay [6] is listed as “reduced”. Further, the “blood glucose vs high-fat control diet” value in assay [6] (fasting) is “significantly lower”.
